Literature values in article PMC9430692, “BRET-Based Self-Cleaving Biosensors for SARS-CoV-2 3CLpro Inhibitor Discovery” (Microbiology Spectrum, 2022).

Test system: SARS-CoV-2
Conditions: Vero E6 cells, MOI 0.01; ref [8]; read-out: Reported EC50 against SARS-CoV-2

Compound: CC(C)(C)NC(=O)N[C@H](C(=O)N1C[C@H]2[C@@H]([C@H]1C(=O)NC(CC1CCC1)C(=O)C(N)=O)C2(C)C)C(C)(C)C (stereo partly shown) [Boceprevir]
- EC50: 15.6 µM
